The record followed here is patent US20100120063A1, “GPCR Arrestin Assays” (DISCOVERX CORPORATION, priority 2008, published 2010).

In general, EC50 refers to the concentration that produces a half-maximal response.

Type in all cases: cell-based
For assay [1], the target named is T1, OPRM1-PK (Homo sapiens, UniProt P35372).
T1 construct: PK (beta-galactosidase ED); expressed in transfected cells; host or cells: U2OS
As to the kind of experiment: Arrestin-EA EFC agonist assay, U2OS cells expressing OPRM1-PK only.
Protocol: (§2) For all assays, 10,000 cells per well were seeded in 20 μL media and incubated overnight in 1% Fetal Bovine Serum and appropriate basal media (F-12 or DMEM). For agonist assays, 5 μL compound was added to cells and incubated at Room Temp. […] Arrestin-EA complex formation with the GPCR was detected with 50% (v/v) of PathHunter Detection Reagent (Dx 93-0001, PathHunter reagents are available from DiscoveRx, Corp., Fremont, Calif.) (Lysis buffer active ingredient 2% CHAPS, Emerald II and Galacton star are from Applied Biosystems.) Data was read on Packard Victor 2 or PerkinElmer ViewLux readers and analyzed using GraphPad Prism 4.

The target in assay [2] is T2, OPRD1-PK and OPRM1 (Homo sapiens, UniProt P35372).
T2 construct: expressed in transfected cells; host or cells: CHO
T2 sequence (P35372 whole entry, species assumed): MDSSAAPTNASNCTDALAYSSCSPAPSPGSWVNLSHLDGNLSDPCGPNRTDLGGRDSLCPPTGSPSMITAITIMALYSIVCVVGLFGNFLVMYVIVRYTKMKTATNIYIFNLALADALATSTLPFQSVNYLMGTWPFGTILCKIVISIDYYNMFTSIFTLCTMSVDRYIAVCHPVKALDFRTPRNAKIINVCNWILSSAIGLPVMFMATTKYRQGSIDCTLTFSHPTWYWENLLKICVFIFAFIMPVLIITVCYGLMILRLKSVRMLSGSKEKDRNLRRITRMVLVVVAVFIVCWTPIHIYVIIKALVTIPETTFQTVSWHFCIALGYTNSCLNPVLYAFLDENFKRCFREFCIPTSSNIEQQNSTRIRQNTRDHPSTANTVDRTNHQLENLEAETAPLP
As to the kind of experiment: Transactivation assay, CHO cells co-expressing OPRD1-PK and OPRM1 (FIG. 12C).
Protocol: as §2

Assay [3] addresses T3, OPRD1-PK (Homo sapiens, UniProt P41143).
T3 construct: cloning junction ISFEL + gly-ser linker […]; PK1 (mutated ED, H to R); expressed in transfected cells; host or cells: CHO
As to the kind of experiment: Arrestin-EA EFC agonist assay, CHO cells expressing OPRD1-PK (FIG. 12A).
Protocol: as §2

In assay [4] the target is T4, CCKAR-PK (Homo sapiens, UniProt P32238).
T4 construct: PK (beta-galactosidase ED); expressed in transfected cells; host or cells: HEK
T4 sequence (P32238 1-428): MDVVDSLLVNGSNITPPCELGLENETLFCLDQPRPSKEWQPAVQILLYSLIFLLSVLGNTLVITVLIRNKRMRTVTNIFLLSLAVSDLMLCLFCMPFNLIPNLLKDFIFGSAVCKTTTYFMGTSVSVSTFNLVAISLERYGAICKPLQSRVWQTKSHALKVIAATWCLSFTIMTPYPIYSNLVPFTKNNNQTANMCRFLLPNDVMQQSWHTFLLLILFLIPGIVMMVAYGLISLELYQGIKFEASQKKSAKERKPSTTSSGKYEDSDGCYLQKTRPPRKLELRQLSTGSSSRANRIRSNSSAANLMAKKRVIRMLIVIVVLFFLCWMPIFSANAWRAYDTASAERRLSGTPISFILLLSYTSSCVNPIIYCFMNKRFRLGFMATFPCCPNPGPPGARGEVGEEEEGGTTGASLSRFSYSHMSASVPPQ
As to the kind of experiment: Arrestin-EA binding to CCKAR-PK in HEK cell line (FIG. 10B, 10D).
Protocol: (§3) For all assays, 10,000 cells per well were seeded in 20 μL media and incubated overnight in 1% Fetal Bovine Serum and appropriate basal media (F-12 or DMEM). For agonist assays, 5 μL compound was added to cells and incubated at Room Temp. For antagonist assays, 5 μL 5× compound was added to cells and incubated at 37° C./5% CO2 for 10 minutes, after which 5 μL 6× agonist was added and incubated for 60 minutes at 37° C. Arrestin-EA complex formation with the GPCR was detected with 50% (v/v) of PathHunter Detection Reagent (Dx 93-0001, PathHunter reagents are available from DiscoveRx, Corp., Fremont, Calif.) (Lysis buffer active ingredient 2% CHAPS, Emerald II and Galacton star are from Applied Biosystems.) Data was read on Packard Victor 2 or PerkinElmer ViewLux readers and analyzed using GraphPad Prism 4.

Assay [5] addresses T4, CCKAR-PK. Kind of assay: Calcium concentration in HEK cell line expressing CCKAR-PK and arrestin-EA (FIG. 10A, 10C).
Assay [6] concerns the target T5, CHRM2 (Homo sapiens, UniProt P08172).
T5 construct: gly-ser flexible linker […]; expressed in transfected cells; host or cells: CHO
T5 sequence (P08172 1-466): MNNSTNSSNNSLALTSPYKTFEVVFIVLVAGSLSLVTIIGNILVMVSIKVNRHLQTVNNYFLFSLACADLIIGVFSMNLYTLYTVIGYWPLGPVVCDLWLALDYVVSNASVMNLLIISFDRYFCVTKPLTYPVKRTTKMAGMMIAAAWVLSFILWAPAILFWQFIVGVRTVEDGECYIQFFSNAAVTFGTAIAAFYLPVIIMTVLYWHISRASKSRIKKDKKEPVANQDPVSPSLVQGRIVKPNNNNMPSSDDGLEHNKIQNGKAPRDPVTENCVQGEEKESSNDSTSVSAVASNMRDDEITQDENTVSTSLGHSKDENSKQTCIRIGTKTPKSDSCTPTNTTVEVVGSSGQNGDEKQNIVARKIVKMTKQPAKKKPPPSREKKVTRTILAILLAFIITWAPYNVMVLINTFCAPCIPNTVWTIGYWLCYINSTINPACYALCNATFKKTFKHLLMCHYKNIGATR
Kind of assay: Arrestin-EA / GPCR-PK β-galactosidase EFC screening assay, CHRM2 fused to mutated ED (PK1). The protocol: (§1) To perform the screening assay, 20 μl of cells in complete media or serum-free media (OPTI-MEM® Invitrogen Cat. #31985-070) were plated at 5, 10 and 15×10^3 cells per well in a white 384 well microplate and incubated at 37° C. overnight. Cells are allowed to adhere and grown overnight. Cells may be screened for their response in serum free or complete medium. Serial dilutions are then performed in serum-free medium or buffer for a volume of 25 μl. Depending on the candidate compound, the dilution may occur in the presence of 0.1% BSA or ≦1% final concentration of an organic solvent, e.g., DMSO and methanol. 5 μl of each candidate compound is added per well. The assay mixture is then incubated for 90 min at 37° C. 12.5 μl of the detection reagent is then added. The detection reagent is prepared by combining 1 part Galacton Star Substrate® with 5 parts Emerald II® Solution and 19 parts Path-Hunter Cell Assay Buffer (lysis buffer). The assay mixture is then incubated for 1 h at room temperature. Chemiluminescence is then read at 1.0 sec/well on PMT based instrument or 5-20 sec on an imager.

The target in assay [7] is T5, CHRM2. As to the kind of experiment: Arrestin-EA / GPCR-PK EFC screening assay, CHO Arrestin + CHRM2-PK2 (wild-type ED). The method, then:
as §1

The target in assay [8] is T6, OPRM1-PK and CCR2 (Homo sapiens, UniProt P41597).
T6 construct: expressed in transfected cells; host or cells: U2OS
T6 sequence (P41597 whole entry, species assumed): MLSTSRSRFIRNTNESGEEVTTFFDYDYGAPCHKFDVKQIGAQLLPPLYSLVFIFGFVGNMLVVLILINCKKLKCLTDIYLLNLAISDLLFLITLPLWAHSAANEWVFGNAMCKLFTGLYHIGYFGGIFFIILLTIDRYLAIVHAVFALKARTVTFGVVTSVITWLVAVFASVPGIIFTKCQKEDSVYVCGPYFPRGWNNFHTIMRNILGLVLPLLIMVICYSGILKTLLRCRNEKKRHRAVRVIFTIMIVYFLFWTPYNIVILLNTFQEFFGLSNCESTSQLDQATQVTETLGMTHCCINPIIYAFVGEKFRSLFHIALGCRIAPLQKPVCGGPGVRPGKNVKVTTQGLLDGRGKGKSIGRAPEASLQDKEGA
Kind of assay: Transactivation assay, U2OS cells co-expressing OPRM1-PK and CCR2 (FIG. 13A). To be noted: CCR2 coexpressed with OPRM1-PK; FIG. 13 graph A.
Protocol: as §2

The target in assay [9] is T7, OPRM1-PK and CCR5 (Homo sapiens, UniProt P51681).
T7 construct: expressed in transfected cells; host or cells: U2OS
T7 sequence (P51681 whole entry, species assumed): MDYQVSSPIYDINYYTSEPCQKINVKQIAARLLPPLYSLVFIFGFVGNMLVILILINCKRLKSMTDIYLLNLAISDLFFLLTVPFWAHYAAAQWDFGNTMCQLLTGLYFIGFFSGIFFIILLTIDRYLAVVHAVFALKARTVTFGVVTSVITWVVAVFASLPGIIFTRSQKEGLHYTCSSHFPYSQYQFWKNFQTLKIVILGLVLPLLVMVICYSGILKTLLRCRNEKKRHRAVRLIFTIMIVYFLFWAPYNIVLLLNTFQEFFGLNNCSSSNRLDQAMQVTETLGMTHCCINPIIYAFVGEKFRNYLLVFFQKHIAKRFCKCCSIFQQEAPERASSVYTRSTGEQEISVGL
Kind of assay: Transactivation assay, U2OS cells co-expressing OPRM1-PK and CCR5 (FIG. 13B). To be noted: CCR5 coexpressed with OPRM1-PK; FIG. 13 graph B.
Protocol: as §3

Where [10] appears, read: curve fit, signal, U2OS OPRM1-PK only.
Where [11] appears, read: curve fit, chemiluminescence signal, FIG. 4.

T1 sequence (P35372 whole entry): as the sequence (P35372 whole entry, species assumed) above

The compound `CC(C)C[C@@H](NC(=O)[C@H](Cc1ccccc1)NC(=O)CNC(=O)[C@@H](C)NC(=O)[C@@H](N)Cc1ccc(O)cc1)C(=O)O` [DADLE] had an HILLSLOPE in assay [1] (U2OS OPRM1-PK only) of 1.483. For the same compound, in [1] (setting [10]), the BOTTOM amounted to 625.6 and the TOP stood at 17070. Moreover, in assay [1] (signal to background, U2OS OPRM1-PK only), the “S:B” value was “[S:B = 32.7]”.

Take `C[C@@H](NC(=O)[C@@H](N)Cc1ccc(O)cc1)C(=O)NCC(=O)N(C)[C@@H](Cc1ccccc1)C(=O)NCCO` [DAMAGO, [D-Ala2,N-Me-Phe4,Gly5-ol]-enkephalin]: the HILLSLOPE in assay [1] (U2OS OPRM1-PK only) was 0.7069; in assay [2] (FIG. 12C), 1.571; in [3] (FIG. 12A) it was 1.293. Moreover, the “arrestin-EA binding response” value in assay [1] (cells expressing only OPRM1-PK) is reported as “presence of response”. Further, the TOP in assay [1] (setting [10]) stood at 10875; in [2] (curve fit, signal, FIG. 12C), 201.4; in assay [3] (curve fit, signal, FIG. 12A), 2809. Besides, the “transactivation response” value in [2] (cells expressing OPRD1-PK and OPRM1) was “lack of response”. Moreover, the BOTTOM came to 20.31 in assay [2] (curve fit, signal, FIG. 12C) and 519.8 in assay [3] (curve fit, signal, FIG. 12A). Moreover, the “S:B” value in [2] (signal to background, FIG. 12C) is “[S:B = 31.9]”. Further, the “response” value in assay [3] (cells expressing only OPRD1-PK) is “absence of response”.

`C[N+](C)(C)CCOC(N)=O` [carbachol]: in [4], the “effect on the binding of arrestin-EA to CCKAR-PK” value is on record as “substantially no effect”. In addition, the “effect on calcium concentration” value in [5] is “some effect”.

As to `O=C1CCCN1CC#CCN1CCCC1` [oxotremorine], in [6] (CHRM2, FIG. 4), the “response with PK1” value is listed as “no response”. Moreover, the “fold response with PK1” value in assay [6] (CHRM2 fused to PK1, FIG. 1A) is listed as 1.4 fold. The “S:B PK1” value in [6] (signal to background ratio, CHRM2 fused to PK1, FIG. 1A) came out at 1.6. Also, in assay [7] (FIG. 4), the EC50 came out at 6.29 µM, the HILLSLOPE is 1.183 and the “response with PK2” value is “robust response”. Further, in assay [7] (setting [11]), the BOTTOM is recorded as 335.9 and the TOP stood at 2037. Moreover, the “S:B PK2” value in assay [7] (signal to background ratio, CHRM2 fused to PK2, FIG. 1B) is 6.1.

CCL3: ligand added to CCR5 cells: the “transactivation response” value in [8] and in assay [9] was “no response” in each case.
